Source: publication PMC5218480 (PLoS ONE, 2017)

System: MV-4-11 cells
Assay: Gene expression microarray analysis (Affymetrix PrimeView) and GSEA
Assay type: cell-based, human
Set-up: RFU PODN (11730768_x_at) / Fold change /veh PODN (11730768_x_at) / RFU LINC00158 (11744669_a_at) / Fold change /veh LINC00158 (11744669_a_at) / RFU DUSP10 (11751237_a_at) / Fold change /veh DUSP10 (11751237_a_at) / RFU ID3 (11757404_x_at) / Fold change /veh ID3 (11757404_x_at) / RFU PLEKHG5 (11737974_s_at) / Fold change /veh PLEKHG5 (11737974_s_at) / RFU LRRC4B (11730491_at) / Fold change /veh LRRC4B (11730491_at) / RFU GIMAP4 (11747438_a_at) / Fold change /veh GIMAP4 (11747438_a_at) / RFU KRT8 (11758183_x_at) / Fold change /veh KRT8 (11758183_x_at) / RFU CNN1 (11734310_a_at) / Fold change /veh CNN1 (11734310_a_at) / RFU VPS37D (11726825_at) / Fold change /veh VPS37D (11726825_at) / RFU C10orf10 (11716522_x_at) / Fold change /veh C10orf10 (11716522_x_at) / RFU KIR2DL2 /// KIR2DL4 /// KIR2DL5A /// KIR2DL5B /// KIR2DS1 /// KIR2DS2 /// KIR2DS3 /// KIR2DS4 /// KIR3DL3 /// KIR3DL3 /// KIR3DS1 (11738374_at) / Fold change /veh KIR2DL2 /// KIR2DL4 /// KIR2DL5A /// KIR2DL5B /// KIR2DS1 /// KIR2DS2 /// KIR2DS3 /// KIR2DS4 /// KIR3DL3 /// KIR3DL3 /// KIR3DS1 (11738374_at) / RFU C1QL1 (11718748_at) / Fold change /veh C1QL1 (11718748_at) / RFU TMPRSS4 (11747572_a_at) / Fold change /veh TMPRSS4 (11747572_a_at) / RFU HAMP (11756126_x_at) / Fold change /veh HAMP (11756126_x_at) / RFU RNFT2 (11725882_a_at) / Fold change /veh RNFT2 (11725882_a_at) / RFU NR4A2 (11747474_a_at) / Fold change /veh NR4A2 (11747474_a_at) / RFU ABCC12 (11746883_a_at) / Fold change /veh ABCC12 (11746883_a_at) / RFU TMEM136 (11760407_x_at) / Fold change /veh TMEM136 (11760407_x_at) / RFU CLDN22 /// WWC2 (11732394_at) / Fold change /veh CLDN22 /// WWC2 (11732394_at) / RFU HLA-DPB1 (11760878_x_at) / Fold change /veh HLA-DPB1 (11760878_x_at) / RFU SPINT1 (11716480_a_at) / Fold change /veh SPINT1 (11716480_a_at) / RFU GAP43 (11754022_s_at) / Fold change /veh GAP43 (11754022_s_at) / RFU A4GNT (11735810_at) / Fold change /veh A4GNT (11735810_at) / RFU PRB3 (11715151_x_at) / Fold change /veh PRB3 (11715151_x_at) / RFU TUBB4B (11761932_at) / Fold change /veh TUBB4B (11761932_at) / RFU CAPN14 (11732068_a_at) / Fold change /veh CAPN14 (11732068_a_at) / RFU TMCC2 (11721928_a_at) / Fold change /veh TMCC2 (11721928_a_at) / RFU IRGQ (11745062_a_at) / Fold change /veh IRGQ (11745062_a_at) / RFU FAM174B (11720279_a_at) / Fold change /veh FAM174B (11720279_a_at) / RFU TMPRSS4 (11748680_a_at) / Fold change /veh TMPRSS4 (11748680_a_at) / RFU FAM212B (11763350_a_at) / Fold change /veh FAM212B (11763350_a_at) / RFU PLEKHG5 (11743358_a_at) / Fold change /veh PLEKHG5 (11743358_a_at) / RFU ZSCAN30 (11745921_a_at) / Fold change /veh ZSCAN30 (11745921_a_at) / RFU CMKLR1 (11741424_a_at) / Fold change /veh CMKLR1 (11741424_a_at) / RFU LOC101060620 /// MAPK8IP1 (11723275_at) / Fold change /veh LOC101060620 /// MAPK8IP1 (11723275_at) / RFU SPTSSB (11747773_x_at) / Fold change /veh SPTSSB (11747773_x_at) / RFU PRSS12 (11739890_at) / Fold change /veh PRSS12 (11739890_at) / RFU BIN1 (11741810_x_at) / Fold change /veh BIN1 (11741810_x_at) / RFU WNT11 (11732464_a_at) / Fold change /veh WNT11 (11732464_a_at) / RFU C10orf10 (11716521_a_at) / Fold change /veh C10orf10 (11716521_a_at) / RFU C5orf56 (11738089_at) / Fold change /veh C5orf56 (11738089_at) / RFU CYB561 (11721691_x_at) / Fold change /veh CYB561 (11721691_x_at) / RFU ANKRD19P (11752326_a_at) / Fold change /veh ANKRD19P (11752326_a_at) / RFU OR2T12 /// OR2T33 /// OR2T8 (11738714_s_at) / Fold change /veh OR2T12 /// OR2T33 /// OR2T8 (11738714_s_at) / RFU VCAN (11748164_a_at) / Fold change /veh VCAN (11748164_a_at) / RFU JSRP1 (11732532_at) / Fold change /veh JSRP1 (11732532_at) / RFU KRTAP10-11 (11738290_x_at) / Fold change /veh KRTAP10-11 (11738290_x_at) / RFU MYO3A (11730013_a_at) / Fold change /veh MYO3A (11730013_a_at) / RFU EBF3 (11725865_a_at) / Fold change /veh EBF3 (11725865_a_at) / RFU CAMK2N1 (11719241_x_at) / Fold change /veh CAMK2N1 (11719241_x_at) / RFU C5orf56 (11738088_a_at) / Fold change /veh C5orf56 (11738088_a_at) / RFU OLFML3 (11715873_a_at) / Fold change /veh OLFML3 (11715873_a_at) / RFU LOC100653217 /// NTM (11731650_a_at) / Fold change /veh LOC100653217 /// NTM (11731650_a_at) / RFU MAPK11 (11762145_a_at) / Fold change /veh MAPK11 (11762145_a_at) / RFU FIZ1 (11724087_x_at) / Fold change /veh FIZ1 (11724087_x_at) / RFU OASL (11726364_x_at) / Fold change /veh OASL (11726364_x_at) / RFU SOX15 (11748057_x_at) / Fold change /veh SOX15 (11748057_x_at) / RFU CD79A (11719716_a_at) / Fold change /veh CD79A (11719716_a_at) / RFU HIST1H1D (11736915_at) / Fold change /veh HIST1H1D (11736915_at) / RFU CASKIN2 (11723855_a_at) / Fold change /veh CASKIN2 (11723855_a_at) / RFU LOC730098 (11760151_x_at) / Fold change /veh LOC730098 (11760151_x_at) / RFU OR4N2 (11742367_at) / Fold change /veh OR4N2 (11742367_at) / RFU PRRT2 (11749266_a_at) / Fold change /veh PRRT2 (11749266_a_at) / RFU SNX32 (11753110_a_at) / Fold change /veh SNX32 (11753110_a_at) / RFU CDHR5 (11726645_a_at) / Fold change /veh CDHR5 (11726645_a_at) / RFU RCAN1 (11760418_a_at) / Fold change /veh RCAN1 (11760418_a_at) / RFU FAM167A (11723789_a_at) / Fold change /veh FAM167A (11723789_a_at) / RFU FAM26E (11764081_at) / Fold change /veh FAM26E (11764081_at) / RFU ISYNA1 (11749810_s_at) / Fold change /veh ISYNA1 (11749810_s_at) / RFU ACY1 (11761880_at) / Fold change /veh ACY1 (11761880_at) / RFU 11764098_at / Fold change /veh 11764098_at / RFU SAMD14 (11745864_x_at) / Fold change /veh SAMD14 (11745864_x_at) / RFU NPB (11741838_a_at) / Fold change /veh NPB (11741838_a_at) / RFU TMPRSS6 (11731388_a_at) / Fold change /veh TMPRSS6 (11731388_a_at) / RFU KRTAP10-2 (11738614_at) / Fold change /veh KRTAP10-2 (11738614_at) / RFU ARHGAP8 /// PRR5-ARHGAP8 (11727945_x_at) / Fold change /veh ARHGAP8 /// PRR5-ARHGAP8 (11727945_x_at) / RFU KRTAP5-7 /// NADSYN1 (11734609_at) / Fold change /veh KRTAP5-7 /// NADSYN1 (11734609_at) / RFU RASL12 (11751679_a_at) / Fold change /veh RASL12 (11751679_a_at) / RFU CDKN2B (11736163_a_at) / Fold change /veh CDKN2B (11736163_a_at) / RFU PRF1 (11729649_at) / Fold change /veh PRF1 (11729649_at) / RFU, ZNF638 /// ZNF638-IT1 / Fold change vs veh, ZNF638 /// ZNF638-IT1 / RFU, PANK3 / Fold change vs veh, PANK3 / RFU, SH3YL1 / Fold change vs veh, SH3YL1 / RFU, ZEB2 / Fold change vs veh, ZEB2 / RFU, NRIP1 / Fold change vs veh, NRIP1 / RFU, PTTG1IP / Fold change vs veh, PTTG1IP / RFU, CAPN2 / Fold change vs veh, CAPN2 / RFU, MED14 / Fold change vs veh, MED14 / RFU, SNORA58 / Fold change vs veh, SNORA58 / RFU, C1orf63 / Fold change vs veh, C1orf63 / RFU, LRRFIP1 / Fold change vs veh, LRRFIP1 / RFU, NDUFAF7 / Fold change vs veh, NDUFAF7 / RFU, SLC12A2 / Fold change vs veh, SLC12A2 / RFU, IBTK / Fold change vs veh, IBTK / RFU, ESF1 / Fold change vs veh, ESF1 / Fold change vs veh, TMEM50B / RFU, TAOK1 / Fold change vs veh, TAOK1 / RFU, ACBD3 / Fold change vs veh, ACBD3 / RFU, TMA16 / Fold change vs veh, TMA16 / RFU, RWDD3 / Fold change vs veh, RWDD3 / RFU, BCAT1 / Fold change vs veh, BCAT1 / RFU, EDEM3 / Fold change vs veh, EDEM3 / RFU, TMEM33 / Fold change vs veh, TMEM33 / RFU, WDR75 / Fold change vs veh, WDR75 / RFU, AHCTF1 / Fold change vs veh, AHCTF1 / RFU, TFRC / Fold change vs veh, TFRC / RFU, ZDHHC17 / Fold change vs veh, ZDHHC17 / RFU, NOM1 / Fold change vs veh, NOM1 / RFU, ARL8B / Fold change vs veh, ARL8B / RFU, ZBTB11 / Fold change vs veh, ZBTB11 / RFU, TAMM41 / Fold change vs veh, TAMM41 / RFU, KIAA1704 /// LOC100996395 / Fold change vs veh, KIAA1704 /// LOC100996395 / RFU, ING1 / Fold change vs veh, ING1 / RFU, TRMT61B / Fold change vs veh, TRMT61B / RFU, FUBP3 / Fold change vs veh, FUBP3 / RFU, TP53 / Fold change vs veh, TP53 / RFU, TNKS2 / Fold change vs veh, TNKS2 / RFU, ZFP14 / Fold change vs veh, ZFP14 / RFU, ACTR2 / Fold change vs veh, ACTR2 / RFU, PPP3R1 / Fold change vs veh, PPP3R1 / RFU, PIK3R1 / Fold change vs veh, PIK3R1 / RFU, HNRNPA1 / Fold change vs veh, HNRNPA1 / RFU, RNF170 / Fold change vs veh, RNF170 / RFU, ZNF28 / Fold change vs veh, ZNF28 / RFU, RNGTT / Fold change vs veh, RNGTT / RFU, OGT / Fold change vs veh, OGT / RFU, BRD1 / Fold change vs veh, BRD1 / RFU, MARS / Fold change vs veh, MARS / RFU, ZNF655 / Fold change vs veh, ZNF655 / RFU, FAHD1 / Fold change vs veh, FAHD1 / RFU, BDP1 / Fold change vs veh, BDP1 / RFU, LRRCC1 / Fold change vs veh, LRRCC1 / RFU, ARID1A / Fold change vs veh, ARID1A / RFU, ZNF146 / Fold change vs veh, ZNF146 / RFU, ZNF330 / Fold change vs veh, ZNF330 / RFU, GPN3 / Fold change vs veh, GPN3 / RFU, C9orf123 / Fold change vs veh, C9orf123 / RFU, N4BP2L2 / Fold change vs veh, N4BP2L2 / RFU, ARFIP1 / Fold change vs veh, ARFIP1 / RFU, FAM179B / Fold change vs veh, FAM179B / RFU, BCL10 / Fold change vs veh, BCL10 / RFU, UHRF1BP1L / Fold change vs veh, UHRF1BP1L / RFU, BET1 / Fold change vs veh, BET1 / RFU, CNOT2 / Fold change vs veh, CNOT2 / RFU, ZNF268 / Fold change vs veh, ZNF268 / Fold change vs veh, ZNF507 / RFU, DGCR2 / Fold change vs veh, DGCR2 / RFU, WDSUB1 / Fold change vs veh, WDSUB1 / Fold change vs veh, HSP90B1 /// MIR3652 / RFU, ADSS / Fold change vs veh, ADSS / RFU, GK / Fold change vs veh, GK / RFU, ZNF148 / Fold change vs veh, ZNF148 / RFU, TAF9 / Fold change vs veh, TAF9 / RFU, SLC1A5 / Fold change vs veh, SLC1A5 / RFU, SLMO2 / Fold change vs veh, SLMO2 / RFU, ABCC4 / Fold change vs veh, ABCC4 / RFU, LOC101060439 /// RAP1B / Fold change vs veh, LOC101060439 /// RAP1B / RFU, RFX7 / Fold change vs veh, RFX7 / RFU, GTPBP10 / Fold change vs veh, GTPBP10 / RFU, CNEP1R1 / Fold change vs veh, CNEP1R1 / RFU, BIVM-ERCC5 /// ERCC5 / Fold change vs veh, BIVM-ERCC5 /// ERCC5 / RFU, ILF3 / Fold change vs veh, ILF3 / RFU 11762660_at / Fold change /veh 11762660_at / RFU VCAN (11757783_s_at) / Fold change /veh VCAN (11757783_s_at) / RFU DDX43 (11728927_at) / Fold change /veh DDX43 (11728927_at) / RFU KRT8 (11758188_x_at) / Fold change /veh KRT8 (11758188_x_at) / RFU NKD1 (11759106_at) / Fold change /veh NKD1 (11759106_at) / RFU SRD5A1 (11742802_a_at) / Fold change /veh SRD5A1 (11742802_a_at) / RFU TPSAB1 /// TPSB2 (11721975_s_at) / Fold change /veh TPSAB1 /// TPSB2 (11721975_s_at) / RFU GSTM3 (11746129_a_at) / Fold change /veh GSTM3 (11746129_a_at) / RFU IL23R (11737362_x_at) / Fold change /veh IL23R (11737362_x_at) / RFU TMEM51 (11727254_a_at) / Fold change /veh TMEM51 (11727254_a_at) / RFU PIWIL2 (11732686_x_at) / Fold change /veh PIWIL2 (11732686_x_at) / RFU ORM1 (11744905_x_at) / Fold change /veh ORM1 (11744905_x_at) / RFU CCDC152 (11743942_at) / Fold change /veh CCDC152 (11743942_at) / RFU ECM1 (11717891_a_at) / Fold change /veh ECM1 (11717891_a_at) / RFU IL23R (11748794_a_at) / Fold change /veh IL23R (11748794_a_at) / RFU TNFAIP8L3 (11732012_x_at) / Fold change /veh TNFAIP8L3 (11732012_x_at) / RFU MBOAT4 (11741988_at) / Fold change /veh MBOAT4 (11741988_at) / RFU 11764193_at / Fold change /veh 11764193_at / RFU TMEM53 (11763286_at) / Fold change /veh TMEM53 (11763286_at) / RFU MAGEB2 (11727129_at) / Fold change /veh MAGEB2 (11727129_at) / RFU TMEM200A (11744735_a_at) / Fold change /veh TMEM200A (11744735_a_at) / RFU CCDC152 (11751479_a_at) / Fold change /veh CCDC152 (11751479_a_at) / RFU FAM211A (11726209_a_at) / Fold change /veh FAM211A (11726209_a_at) / RFU RGS16 (11746705_a_at) / Fold change /veh RGS16 (11746705_a_at) / RFU VCAN (11755009_s_at) / Fold change /veh VCAN (11755009_s_at) / RFU RHOB (11743442_s_at) / Fold change /veh RHOB (11743442_s_at) / RFU RGS16 (11720943_a_at) / Fold change /veh RGS16 (11720943_a_at) / RFU RGS16 (11720944_at) / Fold change /veh RGS16 (11720944_at) / RFU, VPS4B / Fold change vs veh, VPS4B / RFU, CREB1 / Fold change vs veh, CREB1 / RFU, DNAJC13 / Fold change vs veh, DNAJC13 / RFU, GNAQ / Fold change vs veh, GNAQ / RFU, CDK5R1 / Fold change vs veh, CDK5R1 / RFU, ZRANB3 / Fold change vs veh, ZRANB3 / RFU, CUL4A / Fold change vs veh, CUL4A / RFU, CCNY / Fold change vs veh, CCNY / RFU, UFL1 / Fold change vs veh, UFL1 / RFU, COG3 / Fold change vs veh, COG3 / RFU, DIAPH2 / Fold change vs veh, DIAPH2 / RFU, SKA2 / Fold change vs veh, SKA2 / RFU, AFF3 / Fold change vs veh, AFF3 / RFU, LMF1 / Fold change vs veh, LMF1 / RFU, IPO11 / Fold change vs veh, IPO11 / RFU, DFFB / Fold change vs veh, DFFB / RFU, FOXP1 / Fold change vs veh, FOXP1 / RFU, CARD8 / Fold change vs veh, CARD8 / RFU, STRN3 / Fold change vs veh, STRN3 / RFU, ADK / Fold change vs veh, ADK / RFU, RASSF2 / Fold change vs veh, RASSF2 / RFU, WIPF1 / Fold change vs veh, WIPF1 / RFU, LARP1B / Fold change vs veh, LARP1B / RFU, RASA1 / Fold change vs veh, RASA1 / RFU, RB1 / Fold change vs veh, RB1 / RFU, PPFIA1 / Fold change vs veh, PPFIA1 / RFU, MAT2A / Fold change vs veh, MAT2A / RFU, CCT5 / Fold change vs veh, CCT5 / RFU, WDR92 / Fold change vs veh, WDR92 / RFU, CUX1 / Fold change vs veh, CUX1 / RFU, TTC7A / Fold change vs veh, TTC7A / RFU, TMEM135 / Fold change vs veh, TMEM135 / RFU, DEPTOR / Fold change vs veh, DEPTOR / RFU, CPM / Fold change vs veh, CPM / RFU, DNAJB6 / Fold change vs veh, DNAJB6 / RFU, CACNA2D3 / Fold change vs veh, CACNA2D3 / RFU, DTX4 / Fold change vs veh, DTX4 / RFU, TFCP2 / Fold change vs veh, TFCP2 / RFU, GMCL1 /// GMCL1P1 / Fold change vs veh, GMCL1 /// GMCL1P1 / RFU, AEBP2 / Fold change vs veh, AEBP2 / RFU, SNHG1 /// SNORD22 /// SNORD25 /// SNORD26 /// SNORD27 /// SNORD28 /// SNORD29 /// SNORD31 / Fold change vs veh, SNHG1 /// SNORD22 /// SNORD25 /// SNORD26 /// SNORD27 /// SNORD28 /// SNORD29 /// SNORD31 / Fold change (Aza/veh), C12orf56 (ProbeSet 11735607_a_at) / Fold change (ACY-1035/veh), C12orf56 (ProbeSet 11735607_a_at) / Fold change (Aza/veh), FGFR1OP (ProbeSet 11751329_s_at) / Fold change (ACY-1035/veh), FGFR1OP (ProbeSet 11751329_s_at) / Fold change (Aza/veh), VPS36 (ProbeSet 11739960_a_at) / Fold change (ACY-1035/veh), VPS36 (ProbeSet 11739960_a_at) / RFU SYPL1 (11715823_x_at) / Fold change /veh SYPL1 (11715823_x_at) / RFU IGFBP7 (11715501_s_at) / Fold change /veh IGFBP7 (11715501_s_at) / RFU REEP3 (11722064_at) / Fold change /veh REEP3 (11722064_at) / RFU IGLL1 (11728026_x_at) / Fold change /veh IGLL1 (11728026_x_at): dose or concentration left out as unconfirmed
Settings: ProbeSet 11740528_a_at; LIST D

**Q.** With `Nc1ncn([C@@H]2O[C@H](CO)[C@@H](O)[C@H]2O)c(=O)n1` [azacitidine] as the molecule, how does the “RFU, AFF3” value read?
**A.** 349.86 RFU
